Article PMC6368365, “Didehydro-Cortistatin A Inhibits HIV-1 by Specifically Binding to the Unstructured Basic Region of Tat” (mBio, 2019)

Legend:
recombinant Tat = molecular target: T1, recombinant Tat (Human immunodeficiency virus type 1 group M subtype B, UniProt P69697); assay: DARTS assay (protection from proteinase K); assay type: binding, HIV-1; conditions: 20 min room temperature, Western blot
T1 construct: pTatC6H-1 (NIH AIDS Reagent Program) plasmid encoding C-terminal 6xHistidine Tat1-86 (HXB3, subtype B); made in house; host or cells: E. coli BL21 (plasmid pTatC6H-1, NIH AIDS Reagent Program)
T1 sequence (P69697 whole entry): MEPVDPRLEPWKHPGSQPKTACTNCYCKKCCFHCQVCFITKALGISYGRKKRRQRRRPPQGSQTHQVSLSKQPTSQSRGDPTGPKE
Protocol: To confirm that dCA stabilizes Tat structure, we performed drug affinity responsive target stability (DARTS) assays to measure the protection against proteolysis conferred on the target protein by interaction with a small molecule. For this purpose, we incubated Tat with several concentrations of dCA and different concentrations of proteinase K (PK) for 20 min at room temperature. PK digests proteins preferably after hydrophobic, aliphatic, and aromatic residues. The protection was determined by Western blotting with an anti-His antibody (Fig. 5B). Tat alone was proportionally degraded with increasing concentrations of PK. […] Both the fluorescence assays and the DARTS assays support the notion that dCA stabilizes Tat protein.
dCA or an analog of dCA (analog 2) was incubated with 30 ng of recombinant Tat for 20 min at room temperature. Then PK (Ambion) was added at different concentrations. The remaining Tat was quantified by Western blotting using polyclonal anti-Tat antibodies (AIDS Reagent Program) at a 1:2,000 dilution.

HIV = system: HIV; set-up: method as in PMID 29045830; conditions: dCA added to ART-suppressed mice; cited from earlier work
HIV Tat HXB3 = molecular target: T2, HIV Tat HXB3 (Human immunodeficiency virus type 1 group M subtype B, UniProt P69697); assay: Isothermal titration calorimetry of dCA binding to Tat; set-up: species or system HIV-1
T2 construct: pTatC6H-1 (NIH AIDS Reagent Program) plasmid encoding C-terminal 6xHistidine Tat1-86 (HXB3, subtype B); made in house; host or cells: E. coli BL21 (plasmid pTatC6H-1, NIH AIDS Reagent Program)
T2 sequence (P69697 whole entry): as above
Text: Next, we studied the direct interaction of Tat with dCA using ITC. After gradual titration of Tat with dCA in the ITC cell, the integrated heat data of the dCA-Tat interaction were collected (Fig. 1G). This ITC titration curve fitted well with a single-site binding process with a nonlinear least-squares regression, allowing the determination of the association constant (Ka) and entropy (ΔS) and enthalpy (ΔH) changes, as well as the average number of binding sites (N). We determined a 1:1 binding stoichiometry with a Ka of ∼(9.39 ± 1.7) × 10^6 M^−1 (dissociation constant [Kd] = 100 nM). Moreover, dCA binds to Tat at 25°C with a negative (favorable) enthalpy of −3.5 ± 0.1 kcal mol^−1 and positive (favorable) entropy of +20.0 ± 0.5 cal mol^−1 K^−1. The favorable values of ΔH and ΔS are consistent with the characteristics of a combination of van der Waals, hydrophobic, and electrostatic interactions in the binding process. The difference between Tat/dCA affinity (ITC, 100 nM) and dCA inhibitory activity in cell-based assays (0.6 to 2 nM) (Table 2) ([10]) could be the result of the nature of the Tat-TAR feedback loop that amplifies activity in vivo; especially since the amount of Tat in vivo after infection is very low ([24]).
A detailed protocol for ITC is provided in Text S1.
Isothermal titration calorimetry. The measurements were conducted at 25 °C on a Microcal VP-ITC (Microcal, Inc.; Northampton MA). Titrations of HIV Tat HXB3 and HIV-1 TAR with dCA (or peptide, ^46SYGRKKRRQRRRPPQ^60) were done by injecting 250 μL into an isothermal sample chamber containing 1.5 mL HIV Tat HXB3 or HIV-1 TAR solution that was 10 μM in strand. Each experiment of this type was accompanied by the corresponding control experiment in which peptide or dCA injected into a solution of buffer alone. The duration of each injection was 8 s and the delay between the injections was 300 s and 180 s, the initial delay prior to the first injection was 300 s. Each injection generated a heat burst curve (microcalories/second vs. seconds) and the area under each curve was determined by integration [using the origin version 7.0 software (Microcal, Inc.; Northampton, MA)] to obtain the measure of the heat associated with that injection.

In the case of CN(C)C1CC23CCC4(O2)C(=CCC2(C)C(c5ccc6ccncc6c5)=CCC24)C=C3C(O)C1O (stereo not drawn) [dCA, didehydro-cortistatin A], the “protection of Tat from proteinase K degradation” value (recombinant Tat) is given as “Tat degradation by PK was significantly reduced”, the in vivo efficacy (HIV) is given as “systemically reduced viral mRNA in tissues and significantly delayed and reduced viral rebound levels upon treatment interruption” and the Kd (HIV Tat HXB3) is given as 100 nM. The “enthalpy (ΔH)” value (HIV Tat HXB3; ITC, 25°C) was -3.5 ± 0.1 kcal/mol, the “entropy (ΔS)” value (HIV Tat HXB3; ITC, 25°C) was “+20.0 ± 0.5 cal mol^−1 K^−1” and the “association constant (Ka)” value (HIV Tat HXB3; ITC, 25°C, single-site fit) was “(9.39 ± 1.7) × 10^6 M^−1”.
